Data set [1] relates to bone marrow CD34+ hematopoietic cells. The note with it: human.
Procedure: Cryopreserved bone marrow CD34^+ hematopoietic cells obtained from healthy adult human donors were used for all studies. A 21 day ex vivo serum free culture system was utilized that consists of two phases. In culture phase I (culture days 1-7), CD34^+ cells were placed in media containing StemPro-34 complete media (1-glutamine, pen-strep and StemPro-34 nutrient supplement) (Invitrogen, Carlsbad, Calif.) supplemented with 50 ng/mL SCF (HumanZyme, Chicago, Ill.), 50 ng/mL FLT3-Ligand (HumanZyme) and 10 ng/mL IL-3 (HumanZyme). During the first phase of culture (days 0-7), the CD34^+ cells differentiate into progenitor cell populations that include erythroblasts. After 7 days, the cells were transferred to erythropoietin (EPO; Stemcell) supplemented medium (phase 2; culture days 7-21) which is comprised of the following: StemPro-34 complete medium, 4 U/mL EPO, 3 μM mifepristone (Sigma Aldrich, St. Louis, Mo.), 10 μg/mL insulin (Sigma Aldrich), 3 U/mL heparin (Sigma Aldrich) and 0.8 mg/mL holo transferrin (Sigma Aldrich). […]
Expression levels of α-, β- and γ-globin genes are assessed by quantitative PCR analyses. HbF protein levels are assessed by the human Hemoglobin F enzyme-linked immunosorbent assay (ELISA) Quantitation Kit (Bethyl Laboratory, Montgomery, Tex., USA). Percentages of cells expressing HbF are assessed by flow cytometry analysis. […]
The target of a further data set is T1, G9a (Homo sapiens, UniProt Q96KQ7).
T1 sequence (Q96KQ7 1-1210): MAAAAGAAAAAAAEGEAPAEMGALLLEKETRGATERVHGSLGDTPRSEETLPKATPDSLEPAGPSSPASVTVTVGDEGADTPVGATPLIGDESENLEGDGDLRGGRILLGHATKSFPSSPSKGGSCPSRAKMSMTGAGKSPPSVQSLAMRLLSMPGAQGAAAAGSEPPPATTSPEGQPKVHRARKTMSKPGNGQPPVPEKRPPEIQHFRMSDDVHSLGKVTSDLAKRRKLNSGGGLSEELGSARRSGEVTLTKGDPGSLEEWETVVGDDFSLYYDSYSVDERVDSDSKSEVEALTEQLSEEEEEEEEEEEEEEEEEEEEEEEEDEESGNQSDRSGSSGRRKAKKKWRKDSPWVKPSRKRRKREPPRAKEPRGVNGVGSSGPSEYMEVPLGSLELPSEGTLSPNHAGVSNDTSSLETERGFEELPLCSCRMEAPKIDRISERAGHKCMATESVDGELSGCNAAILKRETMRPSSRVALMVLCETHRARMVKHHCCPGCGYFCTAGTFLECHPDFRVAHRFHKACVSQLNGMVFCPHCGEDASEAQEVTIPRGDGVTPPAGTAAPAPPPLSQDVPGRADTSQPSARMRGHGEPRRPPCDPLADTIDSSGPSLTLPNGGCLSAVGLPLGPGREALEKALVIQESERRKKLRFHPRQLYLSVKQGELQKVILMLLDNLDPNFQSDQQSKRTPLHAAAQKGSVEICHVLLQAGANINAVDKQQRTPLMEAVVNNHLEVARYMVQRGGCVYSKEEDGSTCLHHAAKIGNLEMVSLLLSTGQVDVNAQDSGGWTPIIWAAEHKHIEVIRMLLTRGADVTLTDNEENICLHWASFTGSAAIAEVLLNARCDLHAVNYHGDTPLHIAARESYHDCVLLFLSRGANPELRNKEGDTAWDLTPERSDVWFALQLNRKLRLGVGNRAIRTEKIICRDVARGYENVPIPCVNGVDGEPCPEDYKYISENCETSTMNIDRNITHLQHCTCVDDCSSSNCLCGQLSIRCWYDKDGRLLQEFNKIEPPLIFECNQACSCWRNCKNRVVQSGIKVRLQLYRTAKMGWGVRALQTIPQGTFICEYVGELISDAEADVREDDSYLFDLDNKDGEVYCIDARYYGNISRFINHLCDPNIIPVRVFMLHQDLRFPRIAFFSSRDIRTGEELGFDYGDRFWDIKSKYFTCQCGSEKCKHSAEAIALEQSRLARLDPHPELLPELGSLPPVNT
Briefly: G9a AlphaLISA enzymatic activity assay. The format is biochemical. The note with it: 0.15 nM G9a, 10 uM S-adenosyl-methionine, 100 nM biotinylated histone 3 peptide (1-21), 1 h room temperature. Put shortly:
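Reaction of 0.15 nM G9a with 10 uM SAM and 100 nM biotinylated histone H3 (1-21) peptide in 50 mM Tris-HCl pH9, 50 mM NaCl, 0.01% Tween-20, 1 mM DTT, 1 h at room temperature. H3K9me2 detected by AlphaLISA (anti-H3K9me2 acceptor, streptavidin donor beads, 615 nm); IC50 from percent inhibition across dilutions.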

pIC50: −log10 of the molar value. Where a name gives a salt, the structure may show the parent alone.

One may read the pIC50 as −log10 of the IC50, conventionally taken in molar units. Take `COc1cc2c(cc1OCCCN1CCCC1)[nH]c1ccnc(C3=CCNCC3)c12` [Compound 66, 4-{8-methoxy-7-[3-(pyrrolidin-1-yl)propoxy]-5H-pyrido[4,3-b]indol-1-yl}-1,2,3,6-tetrahydropyridine bishydrochloride]: the “Fold Induction” value in data set [1] is 1.3 fold. In addition, the pIC50 against G9a was 8.25.

Consider `COc1cc2c(cc1OCCCN1CCCC1)[nH]c1ccnc(O)c12` [Compound 97, 8-methoxy-7-(3-(pyrrolidin-1-yl)propoxy)-5H-pyrido[4,3-b]indol-1-ol trifluoroacetate], for which the pIC50 against G9a was 7.17.

The compound `COc1cc2c(cc1OCCCN1CC3CC(C3)C1)[nH]c1ccncc12` [Compound 98, 3-[3-({8-methoxy-5H-pyrido[4,3-b]indol-7-yl}oxy)propyl]-3-azabicyclo[3.1.1]heptane hydrochloride] showed a pIC50 against G9a of 5.55.

At G9a, `COc1cc2c(cc1OCCCN1CCCC1)[nH]c1cc(C)ncc12` [Compound 99, 1-[3-({8-methoxy-3-methyl-5H-pyrido[4,3-b]indol-7-yl}oxy)propyl]pyrrolidine hydrochloride] had a pIC50 of 7.80.

As to `COc1cc2c(cc1OCCCN1CCCC1)[nH]c1ccnc(OC)c12` [Compound 100, 1-[3-({1,8-dimethoxy-5H-pyrido[4,3-b]indol-7-yl}oxy)propyl]pyrrolidine hydrochloride], the pIC50 at G9a is 6.42.

At G9a, `COc1cc2c(cc1OCCCN1CCCC1)[nH]c1cc(C3CC3)ncc12` [Compound 101, 1-[3-({3-cyclopropyl-8-methoxy-5H-pyrido[4,3-b]indol-7-yl}oxy)propyl]pyrrolidine hydrochloride] had a pIC50 of 6.92.

`CCN(CC)CCCOc1cc2[nH]c3ccnc(C4CC4)c3c2cc1OC` [Compound 102, [3-({1-cyclopropyl-8-methoxy-5H-pyrido[4,3-b]indol-7-yl}oxy)propyl]diethylamine hydrochloride]: on G9a, the negative logarithm of the IC50 (pIC50) was 6.85.

These data come from patent publication US11111243B2, “Azaindole compounds as histone methyltransferase inhibitors” (GLOBAL BLOOD THERAPEUTICS, INC., priority 2017, dated 2021).
